Values of other authors as cited in patent publication US9839604B1, “Composition for an anti-aging treatment” (Parham Tabibian, MD, Inc., priority 2014, dated 2017).

Legend:
[1] = humectant capacity
[2] = compared with other forms of Vitamin K1 and K2, also remains in the bloodstream longer

Compound	water attracted and bound [1]	levels reached in the bloodstream relative to other forms of Vitamin K1 and K2 [2]
hyaluronic acid	up to 1800 times its own weight in water	–
CC(C)=CCC/C(C)=C/CC/C(C)=C/CC/C(C)=C/CC/C(C)=C/CC/C(C)=C/CC/C(C)=C/CC1=C(C)C(=O)c2ccccc2C1=O [MK-7]	–	seven- to eight-fold higher
